Data as given in PubChem BioAssay AID248 (DTP/NCI, 2004).
Several values for one entry are separate records, joined by “and”; a condition that tells them apart may be missing. Identical values can stand only once. Inconclusive results and toxic doses are left out. No stated cut-off is given here; in the data, active means T/C of 150% or more; inactive means T/C below 125%.

Tested on: L1210 leukemia ip in BDF1 mice, survival T/C
Assay: NCI In Vivo Anticancer Drug Screen. Data for tumor model L1210 Leukemia (intraperitoneal) in B6D2F1 (BDF1) mice
Conditions: endpoint: mean survival time, higher = longer survival
Method: The antitumor activity of compounds was measured in mice bearing transplantable tumors. Survival or tumor size were measured and the results are expressed as the measurement made in the treated group (T) divided by the measurement made in the vehicle treated control group (C). The tumor model used in this assay is L1210 Leukemia (intraperitoneal) in B6D2F1 (BDF1) mice

[1] = dose: 100.0 mg/kg/injection, schedule: Q04DX002 (ip), vehicle: Klucel (hydroxypropylcellulose) (HPC)
[2] = dose: 200.0 mg/kg/injection, schedule: Q04DX002 (ip), vehicle: Klucel (hydroxypropylcellulose) (HPC)
[3] = dose: 400.0 mg/kg/injection, schedule: Q04DX002 (ip), vehicle: Klucel (hydroxypropylcellulose) (HPC)
[4] = dose: 100.0 mg/kg/injection, schedule: Q01DX001 (ip), vehicle: saline
[5] = dose: 200.0 mg/kg/injection, schedule: Q01DX001 (ip), vehicle: saline
[6] = dose: 400.0 mg/kg/injection, schedule: Q01DX001 (ip), vehicle: saline
[7] = dose: 100.0 mg/kg/injection, schedule: Q04DX002 (ip), vehicle: saline with Tween-80
[8] = dose: 200.0 mg/kg/injection, schedule: Q04DX002 (ip), vehicle: saline with Tween-80
[9] = dose: 50.0 mg/kg/injection, schedule: Q01DX009 (ip), vehicle: saline with Tween-80
[10] = dose: 100.0 mg/kg/injection, schedule: Q01DX009 (ip), vehicle: saline with Tween-80
[11] = dose: 100.0 mg/kg/injection, schedule: Q04DX003 (ip), vehicle: saline
[12] = dose: 200.0 mg/kg/injection, schedule: Q04DX003 (ip), vehicle: saline
[13] = dose: 25.0 mg/kg/injection, schedule: Q01DX009 (ip), vehicle: Klucel (hydroxypropylcellulose) (HPC)
[14] = dose: 50.0 mg/kg/injection, schedule: Q01DX009 (ip), vehicle: Klucel (hydroxypropylcellulose) (HPC)
[15] = dose: 50.0 mg/kg/injection, schedule: Q04DX003 (ip), vehicle: Klucel (hydroxypropylcellulose) (HPC)
[16] = dose: 100.0 mg/kg/injection, schedule: Q01DX009 (ip), vehicle: Klucel (hydroxypropylcellulose) (HPC)
[17] = dose: 100.0 mg/kg/injection, schedule: Q04DX003 (ip), vehicle: Klucel (hydroxypropylcellulose) (HPC)
[18] = dose: 200.0 mg/kg/injection, schedule: Q01DX009 (ip), vehicle: Klucel (hydroxypropylcellulose) (HPC)
[19] = dose: 200.0 mg/kg/injection, schedule: Q04DX003 (ip), vehicle: Klucel (hydroxypropylcellulose) (HPC)
[20] = dose: 400.0 mg/kg/injection, schedule: Q01DX009 (ip), vehicle: Klucel (hydroxypropylcellulose) (HPC)
[21] = dose: 200.0 mg/kg/injection, schedule: Q01DX009 (ip), vehicle: saline with Tween-80
[22] = dose: 400.0 mg/kg/injection, schedule: Q01DX009 (ip), vehicle: saline with Tween-80
[23] = dose: 400.0 mg/kg/injection, schedule: Q04DX003 (ip), vehicle: saline

Measured: T/C

ClC1C2CC3C1C3C2C(Cl)(Cl)Cl (configuration not stated)
inactive: [1] 103 % of control | [2] 100 % of control | [3] 90 % of control

CSc1nccc2c1ncn2C1OC(CO)C(O)C1O (configuration not stated)
inactive: [4] 104 % of control | [5] 95 % of control

O=C(O)C1(Cl)C2(Cl)C(Cl)=CC3(Cl)C(Cl)(C(=O)O)C2(Cl)C31Cl (configuration not stated)
inactive: dose: 50.0 mg/kg/injection, schedule: Q01DX001 (ip), vehicle: saline 108 % of control | [4] 103 % of control | [5] 101 % of control | [6] 97 % of control

O=C1CCN(Cc2ccco2)C(=S)N1
inactive: dose: 25.0 mg/kg/injection, schedule: Q01DX Z (ip), vehicle: methylcellulose (MC) 101 % of control | dose: 50.0 mg/kg/injection, schedule: Q01DX Z (ip), vehicle: methylcellulose (MC) 97 % of control

CC(=O)NCC(O)C(O)C(/C=N/Nc1ccccc1)=N/Nc1ccccc1 (configuration not stated)
inactive: dose: 50.0 mg/kg/injection, schedule: Q04DX002 (ip), vehicle: saline with Tween-80 91 % of control | [7] 87 % of control | [8] 95 % of control

C/C(Cc1cc(C)[nH]c(=S)n1)=N\NC(N)=O
inactive: [9] 92 % of control | [10] 92 % of control

CC(=O)NC1CCCC(C)N1 (configuration not stated)
inactive: dose: 50.0 mg/kg/injection, schedule: Q04DX003 (ip), vehicle: saline 98 % of control | [4] 110 % of control | [11] 104 % of control | [5] 100 % of control | [12] 96 % of control

Nc1cnccc1NCC(O)c1ccccc1 (configuration not stated)
inactive: [4] 95 % of control | [5] 101 % of control | [6] 86 % of control

CN1C(=O)CN=C(c2ccccc2)c2cc(Cl)ccc21
inactive: dose: 12.5 mg/kg/injection, schedule: Q01DX009 (ip), vehicle: Klucel (hydroxypropylcellulose) (HPC) 97 % of control | [13] 95 % of control | dose: 25.0 mg/kg/injection, schedule: Q04DX003 (ip), vehicle: Klucel (hydroxypropylcellulose) (HPC) 93 % of control | [14] 100 % of control | [15] 93 % of control | [16] 100 % of control and 103 % of control | [17] 110 % of control and 93 % of control | [18] 100 % of control and 97 % of control | [19] 102 % of control and 110 % of control | [20] 100 % of control | dose: 400.0 mg/kg/injection, schedule: Q04DX003 (ip), vehicle: Klucel (hydroxypropylcellulose) (HPC) 88 % of control

CCOC(=O)C1C(=O)CC(=O)C(C(=O)OCC)C1c1ccc(OC)c(OC)c1OC (configuration not stated)
inactive: [1] 103 % of control | [2] 101 % of control | [3] 113 % of control

CCCCCCCCCCCCCCSCCO
inactive: dose: 100.0 mg/kg/injection, schedule: Q01DX009 (ip), vehicle: carboxymethylcellulose (CMC) 103 % of control | dose: 200.0 mg/kg/injection, schedule: Q01DX009 (ip), vehicle: carboxymethylcellulose (CMC) 102 % of control

O=C(Nc1ccc(Cl)c(Cl)c1)c1ccc2c(c1)C(=O)OC2=O
inactive: [10] 106 % of control | [21] 106 % of control | [22] 106 % of control

CC(=O)n1c(O)c(N=Nc2ccccc2[N+](=O)[O-])c2ccccc21
inactive: dose: 100.0 mg/kg/injection, schedule: Q01DX001 (ip), vehicle: other 92 % of control | dose: 200.0 mg/kg/injection, schedule: Q01DX001 (ip), vehicle: other 93 % of control | dose: 400.0 mg/kg/injection, schedule: Q01DX001 (ip), vehicle: other 98 % of control

COc1ccc(CCN2CCCC2C(=O)O)cc1OC (configuration not stated)
inactive: [11] 96 % of control | [12] 94 % of control | [23] 100 % of control

CC(C)(C)c1ccc(S(=O)(=O)c2ccc(C(C)(C)C)c(N=C=O)c2)cc1N=C=O
inactive: dose: 75.0 mg/kg/injection, schedule: Q04DX002 (ip), vehicle: saline with Tween-80 96 % of control | dose: 150.0 mg/kg/injection, schedule: Q04DX002 (ip), vehicle: saline with Tween-80 101 % of control | dose: 300.0 mg/kg/injection, schedule: Q04DX002 (ip), vehicle: saline with Tween-80 93 % of control

Clc1c(CBr)c(Cl)c(CBr)c(Cl)c1CBr
inactive: [13] 90 % of control | [14] 87 % of control | [17] 88 % of control

CCOC(=O)C(C)(C)CSC(C)(C)C(=O)OCC
inactive: [11] 110 % of control | [12] 101 % of control | [23] 110 % of control

Cc1cc2c(cc1C)C(=O)OC2=O
inactive: [10] 102 % of control | [21] 98 % of control | [22] 100 % of control

O=C1CC(=P(c2ccccc2)(c2ccccc2)c2ccccc2)C(=O)N1c1ccccc1
inactive: [9] 100 % of control | [16] 94 % of control | [10] 100 % of control | [1] 106 % of control | [18] 102 % of control | [21] 100 % of control | [2] 109 % of control | [20] 94 % of control | [3] 98 % of control

C=C(C)C(=O)OC1CC23OC2CC(COC3O)C2OC2C2OC(=O)C(=C)C12 (configuration not stated)
inactive: dose: 6.25 mg/kg/injection, schedule: Q01DX009 (ip), vehicle: acetone 98 % of control | dose: 12.5 mg/kg/injection, schedule: Q01DX001 (ip), vehicle: acetone 106 % of control | dose: 12.5 mg/kg/injection, schedule: Q01DX009 (ip), vehicle: acetone 104 % of control | dose: 12.5 mg/kg/injection, schedule: Q04DX003 (ip), vehicle: acetone 90 % of control | dose: 25.0 mg/kg/injection, schedule: Q01DX001 (ip), vehicle: acetone 106 % of control | dose: 25.0 mg/kg/injection, schedule: Q04DX003 (ip), vehicle: acetone 104 % of control | dose: 50.0 mg/kg/injection, schedule: Q01DX001 (ip), vehicle: acetone 109 % of control

O=[N+]([O-])c1ccc(C2=CSC3=NCCN23)cc1
inactive: dose: 5.0 mg/kg/injection, schedule: Q01DX001 (ip), vehicle: saline 97 % of control | dose: 10.0 mg/kg/injection, schedule: Q01DX001 (ip), vehicle: saline 95 % of control | dose: 20.0 mg/kg/injection, schedule: Q01DX001 (ip), vehicle: saline 95 % of control | dose: 25.0 mg/kg/injection, schedule: Q01DX009 (ip), vehicle: saline 110 % of control | dose: 40.0 mg/kg/injection, schedule: Q01DX001 (ip), vehicle: saline 97 % of control | dose: 50.0 mg/kg/injection, schedule: Q01DX009 (ip), vehicle: saline 95 % of control

Oc1ccccc1/C=N\Sc1ccc(Br)cc1
inactive: [7] 112 % of control | [8] 91 % of control | dose: 400.0 mg/kg/injection, schedule: Q04DX002 (ip), vehicle: saline with Tween-80 94 % of control

CC1(C)N(C(=S)Nc2ccccc2)C1(C)C
inactive: [14] 106 % of control | [15] 92 % of control | [16] 95 % of control | [17] 103 % of control | [18] 92 % of control | [19] 102 % of control
